Consider 12 molecules from patent publication US11813306B2, “Cyclic tetramer compounds as proprotein convertase subtilisin/kexin type 9 (PCSK9) inhibitors for the treatment of metabolic disorders” (NOVARTIS AG, priority 2018, dated 2023).

One may read the IC50 as the concentration at which inhibition is half-maximal.

The test has as its target human PCSK9 (Homo sapiens, UniProt Q8NBP7). Description: PCSK9 ligand binding assay (TR-FRET): interference with binding of human PCSK9 to human LDLR. To be noted: for IC50: Human PCSK9 Alexa Fluor 647 / Human LDLR extracellular domain-Europium Kryptate; for Max % inhibition: efficacy (Amax), 100% = 1 uM unlabeled human PCSK9, 0% = DMSO. As for the experimental part: Example 10: PCSK9 Ligand Binding Assay
The PCSK9 binding of the compounds of the disclosure were measured using a time resolved fluorescence resonance energy transfer (TR-FRET) assay. This time resolved fluorescence resonance energy transfer (TR-FRET) assay measures the ability of a compound of the present disclosure to interfere with the binding of human PCSK9 to human LDLR, providing measures of both potency (IC50) and efficacy (Amax).
Human PCSK9 Alexa Fluor 647
Human LDLR extracellular domain-Europium Kryptate
Proxi plate-low volume assay plate (PerkinElmer #6008280)
Greiner V-bottom (Greiner BioOne #781280)
Assay Buffer • 20 mM HEPES, pH 7.5 • 150 mM NaCl • 1 mM CaCl2 • 0.01% v/v Tween20 • 0.01% w/v BSA
A master compound plate was prepared in a Greiner V bottom plate by diluting compounds of the disclosure in dimethylsulfoxide to the correct concentration for the desired top concentration based on the desired final concentration: for a 30 uM final concentration the master plate concentration is 1.5 mM (68 uL DMSO+12 uL 10 mM of a compound of the disclosure), for a 10 uM final concentration the master plate concentration is 0.5 mM (76 uL DMSO+4 uL 10 mM of a compound of the disclosure), for a 3 uM final concentration the master plate concentration is 150 uM (69 uL DMSO+1 uL 10 mM of a compound of the disclosure). These solutions were pipetted into columns 1 and 11 of the compound plate. Threefold serial dilutions were generated in columns 2-10 and 12-20 of the compound plate by transferring 10 uL into 20 uL of DMSO. Columns 21 and 22 of the compound plate were negative controls containing DMSO alone.
An intermediate plate was generated in a Greiner V bottom plate by transferring 8 uL from each well of the master plate into a corresponding well containing 92 uL of assay buffer and mixing thoroughly.
A Proxi plate-low volume assay plate was used for the assay. To all wells of the plate was added 10 uL of 16 nM Human PCSK9 Alexa Fluor 647, followed by 5 uL from the intermediate plate. For the positive control wells in columns 23 and 24 of the plate, 5 uL of unlabeled human PCSK9 was added at 4 uM in assay buffer containing 8% DMSO. Following a 30 minute incubation, 5 uL of 4 nM Human LDLR extracellular domain-Europium Kryptate was added and the mixture was incubated for an additional 2 hours.
The TR-FRET signal was measured on an EnVision or PheraStar instrument with a 60 ms delay, 330 nm excitation and 665 nm emission (FRET), and 330 nm excitation and 615 nm (Europium). The FRET ratio (FRET/Europium) was used for calculations.
No inhibition (0%) was observed from the wells containing DMSO (Control) in columns 21 and 22 of the compound plate. Full inhibition (100%) was observed from the wells containing 1 uM human PCSK9 (Control) in columns 23 and 24 of the plate. Data is expressed as percent inhibition: (value—0%)/(100%-0%).
Background: In TR-FRET formats the signal depends on donor and acceptor labels being close together.

Sequence of human PCSK9 (Q8NBP7 153-692): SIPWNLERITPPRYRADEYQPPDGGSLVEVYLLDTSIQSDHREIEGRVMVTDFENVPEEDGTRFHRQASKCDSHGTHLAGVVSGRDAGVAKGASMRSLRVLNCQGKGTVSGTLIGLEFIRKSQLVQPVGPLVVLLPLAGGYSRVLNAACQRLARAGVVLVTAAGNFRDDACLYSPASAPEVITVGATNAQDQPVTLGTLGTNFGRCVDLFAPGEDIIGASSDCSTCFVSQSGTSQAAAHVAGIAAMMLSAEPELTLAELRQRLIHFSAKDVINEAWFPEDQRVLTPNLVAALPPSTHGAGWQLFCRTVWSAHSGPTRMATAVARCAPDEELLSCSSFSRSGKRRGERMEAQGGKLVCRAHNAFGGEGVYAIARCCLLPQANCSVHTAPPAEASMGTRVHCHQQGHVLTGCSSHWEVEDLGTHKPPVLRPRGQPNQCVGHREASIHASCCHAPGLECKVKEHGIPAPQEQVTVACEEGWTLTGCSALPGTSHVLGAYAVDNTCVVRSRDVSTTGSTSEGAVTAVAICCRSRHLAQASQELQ
Sequence of human PCSK9 (Q8NBP7 31-152 partner limits assumed): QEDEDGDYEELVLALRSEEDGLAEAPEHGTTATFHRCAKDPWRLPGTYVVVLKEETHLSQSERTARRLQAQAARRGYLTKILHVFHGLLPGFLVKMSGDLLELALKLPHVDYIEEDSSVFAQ

For the molecule `COC[C@@H]1NC(=O)[C@H](C)N(Cc2ccc(Cl)cc2Oc2ccc(-c3cnc(CN(C)C)n3C)nc2)C(=O)C[C@@H](Cc2ccccc2)C(=O)N2CCC[C@@](Cc3ccc(Cl)cc3)(C2)N(C)C1=O` [Compound 27, (3R,7S,10S,13R)-3-Benzyl-6-(4-chloro-2-((6-(2-((dimethylamino)methyl)-1-methyl-1H-imidazol-5-yl)pyridin-3-yl)oxy)benzyl)-13-(4-chlorobenzyl)-10-(methoxymethyl)-7,12-dimethyl-1,6,9,12-tetraazabicyclo[11.3.1]heptadecane-2,5,8,11-tetraone], the IC50 is 0.627 nM and the Max % inhibition turned out to be 111.0%.
The corresponding values for `C[C@H]1C(=O)N[C@@H](CO)C(=O)N[C@@]2(Cc3ccc(Cl)cc3)CCCN(C2)C(=O)[C@H](CC(F)(F)F)CC(=O)N1Cc1c(F)cc(Cl)cc1Oc1ccc(-c2cnc(CN3CCC3)n2C)cc1` [Compound 28, (3S, 7S, 10S, 13R)-6-(2-(4-(2-(azetidin-1-ylmethyl)-1-methyl-1H-imidazol-5-yl)phenoxy)-4-chloro-6-fluorobenzyl)-13-(4-chlorobenzyl)-10-(hydroxymethyl)-7-methyl-3-(2,2,2-trifluoroethyl)-1,6,9,12-tetraazabicyclo[11.3.1]heptadecane-2,5,8,11-tetraone] are 0.612 nM and 114.2%.
The corresponding values for `COC[C@@H]1NC(=O)[C@H](C)N(Cc2ncc(Cl)cc2Oc2ccc(-c3cnc(CN(C)C)n3C)cc2)C(=O)C[C@@H](CC(F)(F)F)C(=O)N2CCC[C@@](Cc3ccc(Cl)cc3)(C2)NC1=O` [Compound 29, (3S, 7S, 10S, 13R)-6-((5-chloro-3-(4-(2-((dimethylamino)methyl)-1-methyl-1H-imidazol-5-yl)phenoxy)pyridin-2-yl)methyl)-13-(4-chlorobenzyl)-10-(methoxymethyl)-7-methyl-3-(2,2,2-trifluoroethyl)-1,6,9,12-tetraazabicyclo[11.3.1]heptadecane-2,5,8,11-tetraone] are 0.97 nM and 119.8%.
The corresponding values for `C[C@H]1C(=O)N[C@@H](COC(F)F)C(=O)N[C@@]2(Cc3ccc(Cl)cc3)CCCN(C2)C(=O)[C@H](Cc2ccccn2)CC(=O)N1Cc1ccc(Cl)cc1Oc1ccc(-c2cnc(CN3CCCC3)n2C)cc1` [Compound 30, (3R,7S,10S,13R)-6-(4-Chloro-2-(4-(1-methyl-2-(pyrrolidin-1-ylmethyl)-1H-imidazol-5-yl)phenoxy)benzyl)-13-(4-chlorobenzyl)-10-((difluoromethoxy)methyl)-7-methyl-3-(pyridin-2-ylmethyl)-1,6,9,12-tetraazabicyclo[11.3.1]heptadecane-2,5,8,11-tetraone] are 0.819 nM and 106.2%.
Turning to `C[C@H]1C(=O)N[C@@H](CO)C(=O)N[C@@]2(Cc3ccc(Cl)cc3)CCCN(C2)C(=O)[C@H]([C@H]2CCc3ccccc32)CC(=O)N1Cc1ccc(Cl)cc1Oc1ccc(-c2cnc(CN(C)C)n2C)cn1` [Compound 31, (3S, 7S, 10S, 13R)-6-(4-chloro-2-((5-(2-((dimethylamino)methyl)-1-methyl-1H-imidazol-5-yl)pyridin-2-yl)oxy)benzyl)-13-(4-chlorobenzyl)-3-((R)-2,3-dihydro-1H-inden-1-yl)-10-(hydroxymethyl)-7-methyl-1,6,9,12-tetraazabicyclo[11.3.1]heptadecane-2,5,8,11-tetraone], the IC50 was 1.1 nM and the Max % inhibition was 98.3%.
The like results for `C[C@H]1C(=O)N[C@@H](CO)C(=O)N(C)[C@@]2(Cc3ccc(Cl)cc3)CCCN(C2)C(=O)[C@H](Cc2ccccn2)CC(=O)N1Cc1c(F)cc(Cl)cc1Oc1ccc(-c2cnc(CN(C)C)n2C)cc1` [Compound 32, (3R,7S,10S,13R)-6-(4-Chloro-2-(4-(2-((dimethylamino)methyl)-1-methyl-1H-imidazol-5-yl)phenoxy)-6-fluorobenzyl)-13-(4-chlorobenzyl)-10-(hydroxymethyl)-7,12-dimethyl-3-(pyridin-2-ylmethyl)-1,6,9,12-tetraazabicyclo[11.3.1]heptadecane-2,5,8,11-tetraone] were, in that order, 0.447 nM and 105.8%.
The like results for `COC[C@@H]1NC(=O)[C@H](C)N(Cc2ccc(Cl)cc2Oc2ccc(-c3cnc(CN4CCC4)n3C)cc2)C(=O)C[C@@H](CC(F)(F)F)C(=O)N2CCC[C@@](Cc3ccc(Cl)cc3)(C2)NC1=O` [Compound 33, (3S,7S,10S,13R)-6-(2-(4-(2-(Azetidin-1-ylmethyl)-1-methyl-1H-imidazol-5-yl)phenoxy)-4-chlorobenzyl)-13-(4-chlorobenzyl)-10-(methoxymethyl)-7-methyl-3-(2,2,2-trifluoroethyl)-1,6,9,12-tetraazabicyclo[11.3.1]heptadecane-2,5,8,11-tetraone] were, in that order, 1.05 nM and 113.0%.
The corresponding values for `C[C@H]1C(=O)N[C@@H](CO)C(=O)N[C@@]2(Cc3ccc(Cl)cc3)CCCN(C2)C(=O)[C@H](Cc2c(F)cccc2F)CC(=O)N1Cc1c(F)cc(Cl)cc1Oc1ccc(-c2cnc(CN(C)C)n2C)cc1` [Compound 34, (3R, 7S, 10S, 13R)-6-(4-chloro-2-(4-(2-((dimethylamino)methyl)-1-methyl-1H-imidazol-5-yl)phenoxy)-6-fluorobenzyl)-13-(4-chlorobenzyl)-3-(2,6-difluorobenzyl)-10-(hydroxymethyl)-7-methyl-1,6,9,12-tetraazabicyclo[11.3.1]heptadecane-2,5,8,11-tetraone] are 0.509 nM and 101.6%.
In the case of `COC[C@@H]1NC(=O)[C@H](C)N(Cc2ccc(Cl)cc2Oc2ccc(-c3cnc(CN(C)C)n3C)cc2)C(=O)C[C@@H](Cc2ncco2)C(=O)N2CCC[C@@](Cc3ccc(Cl)cc3)(C2)NC1=O` [Compound 35, (3R, 7S, 10S, 13R)-6-(4-chloro-2-(4-(2-((dimethylamino)methyl)-1-methyl-1H-imidazol-5-yl)phenoxy)benzyl)-13-(4-chlorobenzyl)-10-(methoxymethyl)-7-methyl-3-(oxazol-2-ylmethyl)-1,6,9,12-tetraazabicyclo[11.3.1]heptadecane-2,5,8,11-tetraone], the IC50 worked out at 0.914 nM and the Max % inhibition was determined as 105.0%.
Take `C[C@H]1C(=O)N[C@@H](CO)C(=O)N[C@@]2(Cc3ccc(Cl)cc3)CCCN(C2)C(=O)CCC(=O)N1Cc1c(OCC(F)(F)F)cc(Cl)cc1Oc1ccc(-c2cnc(CN(C)C)n2C)cc1` [Compound 36, (7S, 10S, 13R)-6-(4-chloro-2-(4-(2-((dimethylamino)methyl)-1-methyl-1H-imidazol-5-yl)phenoxy)-6-(2,2,2-trifluoroethoxy)benzyl)-13-(4-chlorobenzyl)-10-(hydroxymethyl)-7-methyl-1,6,9,12-tetraazabicyclo[11.3.1]heptadecane-2,5,8,11-tetraone]: the concentration for half-maximal inhibition (IC50) was 0.584 nM and the Max % inhibition stood at 104.5%.
The like results for `C[C@H]1C(=O)N[C@@H](CO)C(=O)N(C)[C@@]2(Cc3ccc(Cl)cc3)CCCN(C2)C(=O)[C@H](Cc2c(F)cc(F)cc2F)CC(=O)N1Cc1ccc(Cl)cc1Oc1ccc(-c2cnc(CN(C)C)n2C)cc1` [Compound 37, (3R, 7S, 10S, 13R)-6-(4-chloro-2-(4-(2-((dimethylamino)methyl)-1-methyl-1H-imidazol-5-yl)phenoxy)benzyl)-13-(4-chlorobenzyl)-10-(hydroxymethyl)-7,12-dimethyl-3-(2,4,6-trifluorobenzyl)-1,6,9,12-tetraazabicyclo[11.3.1]heptadecane-2,5,8,11-tetraone] were, in that order, 0.445 nM and 112.0%.
The like results for `COC[C@@H]1NC(=O)[C@H](C)N(Cc2ccc(Cl)cc2Oc2ccc(-c3cnc(CN(C)C)n3C)cc2)C(=O)C[C@@H](Cc2cccc(C)n2)C(=O)N2CCC[C@@](Cc3ccc(Cl)cc3)(C2)N(C)C1=O` [Compound 38, (3R, 7S, 10S, 13R)-6-(4-chloro-2-(4-(2-((dimethylamino)methyl)-1-methyl-1H-imidazol-5-yl)phenoxy)benzyl)-13-(4-chlorobenzyl)-10-(methoxymethyl)-7,12-dimethyl-3-((6-methylpyridin-2-yl)methyl)-1,6,9,12-tetraazabicyclo[11.3.1]heptadecane-2,5,8,11-tetraone] were, in that order, 0.715 nM and 106.4%.
